These results are taken from patent publication US8399462B2, “JNK modulators” (Roche Palo Alto LLC, priority 2006, dated 2013).

Several values for one entry are separate records, joined by “and”; a condition that tells them apart may be missing. Equal values may be shown once.

The compound `CS(=O)(=O)CCCOc1cccc2c1cnn2-c1ccnc(N[C@H]2CC[C@H](C(=O)c3ccccc3)CC2)n1` [Compound 255, (4-{4-[4-(3-methane-sulfonyl-propoxy)-indazol-1-yl]-pyrimidin-2-ylamino}-cyclohexyl)-phenyl-methanone] displayed a melting point of 174.5 to 175.5 °C. In turn, `CS(=O)(=O)CCCOc1cccc2c1cnn2-c1ccnc(N[C@H]2CC[C@H](C(=O)c3ccccn3)CC2)n1` [Compound 256, (4-{4-[4-(3-methane-sulfonyl-propoxy)-indazol-1-yl]-pyrimidin-2-ylamino}-cyclohexyl)-pyrid-2-yl-methanone] came in with a melting point of 200 to 201 °C. In the case of `COC(=O)c1cccc2c1ccn2-c1ccnc(N[C@H]2CC[C@H](NS(=O)(=O)C3CC3)CC2)n1` [Compound 257, 1-[2-(4-cyclopropane-sulfonylamino-cyclo-hexylamino)-pyrimidin-4-yl]-1H-indole-4-carboxylic acid methyl ester] it was 250 to 251 °C; in that of `CC(C)(O)c1cccc2c1ccn2-c1ccnc(N[C@H]2CC[C@H](NS(=O)(=O)N3CCCC3)CC2)n1` [Compound 258, Pyrrolidine-1-sulfonic acid (4-{4-[4-(2-hydroxyprop-2-yl)-indol-1-yl]-pyrimidin-2-ylamino}-cyclohexyl)-amide], 178 to 179 °C; in that of `CC(C)(O)c1cccc2c1ccn2-c1ccnc(N[C@H]2CC[C@H](NS(=O)(=O)N3CCOCC3)CC2)n1` [Compound 259, Morpholine-4-sulfonic acid (4-{4-[4-(2-hydroxyprop-2-yl)-indol-1-yl]-pyrimidin-2-ylamino}-cyclohexyl)-amide], > 300 °C.

The compound `CCOC(=O)[C@H]1CC[C@H](Nc2nccc(-n3ncc4c(OCCCS(N)(=O)=O)cccc43)n2)CC1` [Compound 260, 4-{4-[4-(3-sulfamoyl-propoxy)-indazol-1-yl]-pyrimidin-2-ylamino}-cyclohexanecarboxylic acid ethyl ester] registered a melting point of 166 to 167 °C.

Regarding `COC1CCCN(C(=O)[C@H]2CC[C@H](Nc3nccc(-n4ccc5c(OCCCS(C)(=O)=O)cccc54)n3)CC2)C1` (stereo partly drawn) [Compound 263, (4-{4-[4-(3-methane-sulfonyl-propoxy)-indol-1-yl]-pyrimidin-2-ylamino}-cyclohexyl)-(3-methoxy-piperidin-1-yl)-methanone], the melting point lay within 121 to 122 °C. In the case of `CS(=O)(=O)CCCOc1cccc2c1ccn2-c1ccnc(N[C@H]2CC[C@H](C(=O)N3CCCC(C#N)C3)CC2)n1` (stereo partly drawn) [Compound 264, 1-(4-{4-[4-(3-methane-sulfonyl-propoxy)-indol-1-yl]-pyrimidin-2-ylamino}-cyclohexane-carbonyl)-piperidine-3-carbonitrile] it was 132 to 133 °C. The compound `CS(=O)(=O)CCCOc1cccc2c1ccn2-c1ccnc(N[C@H]2CC[C@H](C(=O)N3CCC(C#N)CC3)CC2)n1` [Compound 265, 1-(4-{4-[4-(3-methane-sulfonyl-propoxy)-indol-1-yl]-pyrimidin-2-ylamino}-cyclohexane-carbonyl)-piperidine-4-carbonitrile] showed a melting point of 150.5 to 156.5 °C. In the case of `CC(=O)N1CCN(c2cccc3c2ccn3-c2ccnc(N[C@H]3CC[C@H](NS(C)(=O)=O)CC3)n2)CC1` [Compound 267, N-(4-{4-[4-(4-acetyl-piperazin-1-yl)-indol-1-yl]-pyrimidin-2-yl-amino}-cyclohexyl)-methanesulfonamide] it was 268 to 269 °C; in that of `COC1CN(C(=O)[C@H]2CC[C@H](Nc3nccc(-n4ccc5c(OCCCS(C)(=O)=O)cccc54)n3)CC2)C1` [Compound 274, (4-{4-[4-(3-methane-sulfonyl-propoxy)-indol-1-yl]-pyrimidin-2-ylamino}-cyclohexyl)-(3-methoxy-azetidin-1-yl)-methanone], 162 to 163 °C; in that of `CN(C)C1CCN(C(=O)[C@H]2CC[C@H](Nc3nccc(-n4ccc5c(OCCCS(C)(=O)=O)cccc54)n3)CC2)CC1` [Compound 275, (4-dimethylamino-piperidin-1-yl)-(4-{4-[4-(3-methanesulfonyl-propoxy)-indol-1-yl]-pyrimidin-2-ylamino}-cyclohexyl)-methanone], 182.4 to 183 °C and 178.9 to 180.6 °C. `NS(=O)(=O)CCCOc1cccc2c1cnn2-c1ccnc(N[C@H]2CC[C@H](C(=O)N3CCCC3)CC2)n1` [Compound 276] showed a melting point of 249 to 250 °C.

Regarding `CC(C)(O)[C@H]1CC[C@H](Nc2nccc(-n3cc(C(N)=O)c4ccccc43)n2)CC1` [Compound 277, 1-{2-[4-(2-hydroxy-prop-2-yl)-cyclohexyl-amino]-pyrimidin-4-yl}-1H-indole-3-carboxylic acid amide], the melting point lay within 222 to 223 °C.

For the compound `CS(=O)(=O)CCCOc1cccc2c1ccn2-c1ccnc(NC2CCC(F)(F)CC2)n1` [Compound 278, (4,4-difluorocyclo-hexyl)-{4-[4-(3-methane-sulfonyl-propoxy)-indol-1-yl]-pyrimidin-2-yl}-amine], the melting point fell in the range of 200 to 201 °C. In the case of `O=C([C@H]1CC[C@H](Nc2nccc(-n3ccc4c(OCC(F)(F)F)cccc43)n2)CC1)N1CCC(O)CC1` [Compound 279, (4-hydroxy-piperidin-1-yl)-(4-{4-[4-(2,2,2-trifluoroethoxy)-indol-1-yl]-pyrimidin-2-yl-amino}-cyclohexyl)-methanone] it was 140.7 to 143.3 °C. In the case of `CS(=O)(=O)CCCOc1cccc2c1ccn2-c1ccnc(N[C@H]2CC[C@H](NS(=O)(=O)CCCN3CCOCC3)CC2)n1` [Compound 280, 3-morpholin-4-yl-pro-pane-1-sulfonic acid (4-{4-[4-(3-methane-sulfonyl-propoxy)-indol-1-yl]-pyrimidin-2-yl-amino}-cyclohexyl)-amide] it was 174 to 179.3 °C. The figure for `CC(C)(O)COc1cccc2c1ccn2-c1ccnc(N[C@H]2CC[C@H](C(=O)N3CCC(O)CC3)CC2)n1` [Compound 281, (4-{4-[4-(2-hydroxy-2-methyl-propoxy)-indol-1-yl]-pyrimidin-2-yl-amino}-cyclohexyl)-(4-hydroxy-piperidin-1-yl)-methanone] is 174 to 176.9 °C; for `COc1cccc2c1c(C(N)=O)cn2-c1ccnc(N[C@H]2CC[C@H](C(=O)N3CCC(O)CC3)CC2)n1` [Compound 282, 1-{2-[4-(4-hydroxy-piperidine-1-carbonyl)-cyclohexylamino]-pyrimidin-4-yl}-4-methoxy-1H-indole-3-carboxylic acid amide] it is 278 to 280 °C; for `COc1cccc2c1c(C(N)=O)cn2-c1ccnc(N[C@H]2CC[C@H](N(C)S(C)(=O)=O)CC2)n1` [Compound 283, 1-{2-[4-(methane-sulfonyl-methylamino)-cyclohexylamino]-pyrimidin-4-yl}-4-methoxy-1H-indole-3-carboxylic acid amide] it is 285 to 287 °C. With `COC(=O)CCCOc1cccc2c1ccn2-c1ccnc(N[C@H]2CC[C@H](N(C)S(C)(=O)=O)CC2)n1` [Compound 284, 4-(1-{2-[4-(methane-sulfonyl-methylamino)-cyclohexylamino]-pyrimidin-4-yl}-1H-indol-4-yloxy)-butyric acid methyl ester], the melting point lay in the range of 145 to 146 °C.

In turn, `CS(=O)(=O)CCCOc1cccc2c1ccn2-c1ccnc(N[C@H]2CC[C@H](CCl)CC2)n1` [Compound 285, (4-chloromethyl-cyclo-hexyl)-{4-[4-(3-methane-sulfonyl-propoxy)-indol-1-yl]-pyrimidin-2-yl}-amine] gave a melting point of 152 to 155 °C.

Turning to `CN(C)C1CCN(C(=O)[C@H]2CC[C@H](Nc3nccc(-n4ccc5c(OCCCC(F)(F)F)cccc54)n3)CC2)CC1` [Compound 286, (4-dimethylamino-piperidin-1-yl)-(4-{4-[4-(4,4,4-trifluorobutoxy)-indol-1-yl]-pyrimidin-2-ylamino}-cyclohexyl)-methanone], the melting point was in the range of 179 to 180 °C. The figure for `O=C([C@H]1CC[C@H](Nc2nccc(-n3ccc4c(OCC(O)CC(F)(F)F)cccc43)n2)CC1)N1CCC(O)CC1` (stereo partly drawn) [Compound 288] is 215 to 215.5 °C; for `CS(=O)(=O)CCCOc1cccc2c1ccn2-c1ccnc(N[C@H]2CC[C@H](C(=O)N3CCCC(O)C3)CC2)n1` (stereo partly drawn) [Compound 291, (3-hydroxy-piperidin-1-yl)-(4-{4-[4-(3-methane-sulfonyl-propoxy)-indol-1-yl]-pyrimidin-2-ylamino}-cyclohexyl)-methanone] it is 167.3 to 170.5 °C. The figure for `CC1(O)CCN(C(=O)[C@H]2CC[C@H](Nc3nccc(-n4ccc5c(OCCCS(C)(=O)=O)cccc54)n3)CC2)CC1` [Compound 292, (4-hydroxy-4-methyl-piperidin-1-yl)-(4-{4-[4-(3-methanesulfonyl-propoxy)-indol-1-yl]-pyrimidin-2-ylamino}-cyclohexyl)-methanone] is 132.6 to 137.7 °C; for `CNC1CCN(C(=O)[C@H]2CC[C@H](Nc3nccc(-n4ccc5c(OCCCS(C)(=O)=O)cccc54)n3)CC2)CC1` [Compound 293, (4-{4-[4-(3-methane-sulfonyl-propoxy)-indol-1-yl]-pyrimidin-2-ylamino}-cyclohexyl)-(4-methylamino-piperidin-1-yl)-methanone] it is 187.5 to 189.1 °C; for `CS(=O)(=O)CCCOc1cccc2c1ccn2-c1ccnc(N[C@H]2CC[C@H](NS(=O)(=O)c3cccs3)CC2)n1` [Compound 294, Thiophene-2-sulfonic-acid (4-{4-[4-(3-methane-sulfonyl-propoxy)-indol-1-yl]-pyrimidin-2-ylamino}-cyclohexyl)-amide] it is 226 to 227 °C. In the case of `CN(C)C1CCN(C(=O)[C@H]2CC[C@H](Nc3nccc(-n4cc(C(N)=O)c5ccccc54)n3)CC2)CC1` [Compound 295, 1-{2-[4-(4-dimethylamino-piperidine-1-carbonyl)-cyclohexylamino]-pyrimidin-4-yl}-1H-indole-3-carboxylic acid amide] it was 219 to 221 °C; in that of `CS(=O)(=O)CCCOc1cccc2c1ccn2-c1ccnc(N[C@H]2CC[C@H](C(=O)N3CCC(S(C)(=O)=O)CC3)CC2)n1` [Compound 297, (4-methanesulfonyl-piperidin-1-yl)-(4-{4-[4-(3-methanesulfonyl-propoxy)-indol-1-yl]-pyrimidin-2-ylamino}-cyclohexyl)-methanone], 215 to 219 °C.
